We go through one molecule from patent publication US20180098969A1, “HODGKIN LYMPHOMA THERAPY” (Purdue Pharmaceutical Products L.P., priority 2016, published 2018).

The test system of experiment [1] is non-resistant L1236 Hodgkin lymphoma cell lines. The experiment in a line: Viable cell count and IC50, non-resistant lines. Format: cell-based, human. The following applies: FIG. 6B. Here is the method:
(b) The bendamustine-resistant Hodgkin lymphoma cell line L1236-R100, non-resistant L1236 Hodgkin lymphoma cell line cultured in DMSO L1236/DMSO and L1236 was cultured in the presence of EDO-S101 dissolved in DMSO at concentrations of 0.78 μM, 1.56 μM, 3.12 μM, 6.25 μM and 12.5 μM. Control cells were cultured in the same final concentration of DMSO. The number of viable cells was assessed at 24, 48 and 72 hours through a Countess™ automated cell counter (Invitrogen), each experiment being repeated three times and the results given being the mean of the three results ±SD.

Experiment [2] concerns relapsed-refractory Hodgkin lymphoma. Conditions: in vivo; cited from earlier work.

Each structure is given as a SMILES string.

For `Cn1c(CCCC(=O)O)nc2cc(N(CCCl)CCCl)ccc21` [bendamustine], the IC50 entry in experiment [1] was “high IC50 values”. Further, the “relapsed/refractory Hodgkin lymphoma patients resistant” value in experiment [2] is reported as “about 40%”.
